Assay results reported in publication PMC4858212, “Production of the Ramoplanin Activity Analogue by Double Gene Inactivation” (PLoS ONE, 2016).
Converted amounts (≈) assume the structure as drawn. Where two headings read alike, the source gives them in different places. Numbered stars: 1 amine (or outer) side, 2 acyl side, 3 side chain; on linkers, the order of the positions; unused ones are H or OH. Bridge positions count the residues as written; N and C are the ends. Square brackets hold non-standard residues; d marks the D form. Peptide text beside a SMILES is read from it. * marks the point of attachment. Hpg(αMan(1-2)αMan) = N[C@H](C(=O)O)c1ccc(O[C@H]2O[C@H](CO)[C@@H](O)[C@H](O)[C@@H]2O[C@H]2O[C@H](CO)[C@@H](O)[C@H](O)[C@@H]2O)cc1; Octa(2Z,4E)dienoyl(7-Me) = CC(C)C/C=C/C=C\C(=O)*; X1 = NC(=O)[C@@H](O[*:3])[C@H](N[*:1])C(=O)[*:2]; Hpg(3-Cl) = N[C@H](C(=O)O)c1ccc(O)c(Cl)c1; d(aThr) = C[C@@H](O)[C@@H](N)C(=O)O; dHpg = N[C@@H](C(=O)O)c1ccc(O)cc1; Hpg = N[C@H](C(=O)O)c1ccc(O)cc1; aThr = C[C@H](O)[C@H](N)C(=O)O; dOrn = NCCC[C@@H](N)C(=O)O

Assays:
[1] = system: Staphylococcus aureus ATCC25923
Experimental: (§1) The activies of ramoplanin and its analogs against MRSA and VRE were determined using a liquid microdilution method. MIC values were detected according to the CLSI guidelines. ATCC 25923 (methicillin-sensitive Staphylococcus aureus, MSSA), ATCC 43300 (methicillin-resistant Staphylococcus aureus, MRSA), ATCC 29212 (Enterococcus faecalis) and ATCC 51299 (vancomycin-resistant Enterococcus faecalis, VRE) were employed in this study. Ramoplanin and its analogs were dissolved in 30% methyl alcohol, which was also used as the negative control during the serial tests.
(§2) Antibacterial activities of purified deschlororamoplanin A2 aglycone were compared with ramoplanin A2 and ramoplanin A2 aglycone. The MICs of ramoplanin A2, ramoplanin A2 aglycone and deschlororamoplanin A2 aglycone against ATCC 25923 (methicillin-sensitive Staphylococcus aureus, MSSA), ATCC 43300 (methicillin-resistant Staphylococcus aureus, MRSA), ATCC 29212 (Enterococcus faecalis) and ATCC 51299 (vancomycin-resistant Enterococcus faecalis, VRE) were determined.

[2] = system: Enterococcus faecalis ATCC29212
Experimental: as §1, §2

[3] = system: Enterococcus faecalis ATCC51299
Experimental: as §1, §2

[4] = system: Staphylococcus aureus ATCC43300
Experimental: as §1, §2

Compound	MIC ([1]; ATCC25923) [mg/L]	MIC ([2]; ATCC29212) [mg/L]	MIC ([3]; ATCC51299) [mg/L]	MIC ([4]; ATCC43300) [mg/L]	MIC ([1]; Staphylococcus aureus ATCC25923 (methicillin-sensitive, MSSA), liquid microdilution, CLSI guidelines, compounds dissolved in 30% methyl alcohol) [mg/L]	MIC ([2]; Enterococcus faecalis ATCC29212, liquid microdilution, CLSI guidelines, compounds dissolved in 30% methyl alcohol) [mg/L]	MIC ([3]; Enterococcus faecalis ATCC51299 (vancomycin-resistant, VRE), liquid microdilution, CLSI guidelines, compounds dissolved in 30% methyl alcohol) [mg/L]	MIC ([4]; Staphylococcus aureus ATCC43300 (methicillin-resistant, MRSA), liquid microdilution, CLSI guidelines, compounds dissolved in 30% methyl alcohol) [mg/L]
CC(C)C/C=C/C=C\C(=O)N[C@@H](CC(N)=O)C(=O)N[C@@H]1C(=O)N[C@H](c2ccc(O)cc2)C(=O)N[C@H](CCCN)C(=O)N[C@H]([C@@H](C)O)C(=O)N[C@@H](c2ccc(O)cc2)C(=O)N[C@H](c2ccc(O)cc2)C(=O)N[C@@H]([C@H](C)O)C(=O)N[C@@H](Cc2ccccc2)C(=O)N[C@H](CCCN)C(=O)N[C@@H](c2ccc(O)cc2)C(=O)N[C@H]([C@@H](C)O)C(=O)N[C@@H](c2ccc(O)cc2)C(=O)NCC(=O)N[C@@H](CC(C)C)C(=O)N[C@H](C)C(=O)N[C@@H](c2ccc(O)cc2)C(=O)O[C@@H]1C(N)=O [Deschlororamoplanin A2 aglycone] ({Octa(2Z,4E)dienoyl(7-Me)}-N[X1][dHpg][dOrn][d(aThr)][Hpg][dHpg][aThr]F[dOrn][Hpg][d(aThr)][Hpg]GL[dA][Hpg]; ester 2-C)	2 (≈ 0.911 µM)	1 (≈ 0.456 µM)	1 (≈ 0.456 µM)	4 (≈ 1.82 µM)				
CC(C)C/C=C/C=C\C(=O)N[C@@H](CC(N)=O)C(=O)N[C@@H]1C(=O)N[C@H](c2ccc(O)cc2)C(=O)N[C@H](CCCN)C(=O)N[C@H]([C@@H](C)O)C(=O)N[C@@H](c2ccc(O)cc2)C(=O)N[C@H](c2ccc(O)cc2)C(=O)N[C@@H]([C@H](C)O)C(=O)N[C@@H](Cc2ccccc2)C(=O)N[C@H](CCCN)C(=O)N[C@@H](c2ccc(O[C@H]3O[C@H](CO)[C@@H](O)[C@H](O)[C@@H]3O[C@H]3O[C@H](CO)[C@@H](O)[C@H](O)[C@@H]3O)cc2)C(=O)N[C@H]([C@@H](C)O)C(=O)N[C@@H](c2ccc(O)cc2)C(=O)NCC(=O)N[C@@H](CC(C)C)C(=O)N[C@H](C)C(=O)N[C@@H](c2ccc(O)cc2)C(=O)O[C@@H]1C(N)=O [Deschlororamoplanin A2] ({Octa(2Z,4E)dienoyl(7-Me)}-N[X1][dHpg][dOrn][d(aThr)][Hpg][dHpg][aThr]F[dOrn][Hpg(αMan(1-2)αMan)][d(aThr)][Hpg]GL[dA][Hpg]; ester 2-C)	2 (≈ 0.794 µM)	1 (≈ 0.397 µM)	1 (≈ 0.397 µM)	2 (≈ 0.794 µM)				
CC(C)C/C=C/C=C\C(=O)N[C@@H](CC(N)=O)C(=O)N[C@@H]1C(=O)N[C@H](c2ccc(O)cc2)C(=O)N[C@H](CCCN)C(=O)N[C@H]([C@@H](C)O)C(=O)N[C@@H](c2ccc(O)cc2)C(=O)N[C@H](c2ccc(O)cc2)C(=O)N[C@@H]([C@H](C)O)C(=O)N[C@@H](Cc2ccccc2)C(=O)N[C@H](CCCN)C(=O)N[C@@H](c2ccc(O)cc2)C(=O)N[C@H]([C@@H](C)O)C(=O)N[C@@H](c2ccc(O)cc2)C(=O)NCC(=O)N[C@@H](CC(C)C)C(=O)N[C@H](C)C(=O)N[C@@H](c2ccc(O)c(Cl)c2)C(=O)O[C@@H]1C(N)=O [Ramoplanin A2 aglycone] ({Octa(2Z,4E)dienoyl(7-Me)}-N[X1][dHpg][dOrn][d(aThr)][Hpg][dHpg][aThr]F[dOrn][Hpg][d(aThr)][Hpg]GL[dA][Hpg(3-Cl)]; ester 2-C)	2 (≈ 0.897 µM)	0.5 (≈ 0.224 µM)	1 (≈ 0.448 µM)	2 (≈ 0.897 µM)				
CC(C)C/C=C/C=C\C(=O)N[C@@H](CC(N)=O)C(=O)N[C@@H]1C(=O)N[C@H](c2ccc(O)cc2)C(=O)N[C@H](CCCN)C(=O)N[C@H]([C@@H](C)O)C(=O)N[C@@H](c2ccc(O)cc2)C(=O)N[C@H](c2ccc(O)cc2)C(=O)N[C@@H]([C@H](C)O)C(=O)N[C@@H](Cc2ccccc2)C(=O)N[C@H](CCCN)C(=O)N[C@@H](c2ccc(O[C@H]3O[C@H](CO)[C@@H](O)[C@H](O)[C@@H]3O[C@H]3O[C@H](CO)[C@@H](O)[C@H](O)[C@@H]3O)cc2)C(=O)N[C@H]([C@@H](C)O)C(=O)N[C@@H](c2ccc(O)cc2)C(=O)NCC(=O)N[C@@H](CC(C)C)C(=O)N[C@H](C)C(=O)N[C@@H](c2ccc(O)c(Cl)c2)C(=O)O[C@@H]1C(N)=O [Ramoplanin A2] ({Octa(2Z,4E)dienoyl(7-Me)}-N[X1][dHpg][dOrn][d(aThr)][Hpg][dHpg][aThr]F[dOrn][Hpg(αMan(1-2)αMan)][d(aThr)][Hpg]GL[dA][Hpg(3-Cl)]; ester 2-C)	2 (≈ 0.783 µM)	1 (≈ 0.392 µM)	1 (≈ 0.392 µM)	4 (≈ 1.57 µM)				
Enduracidin					8	8	8	8
